Results from PubChem BioAssay (NCI).
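Briefly, cells in 96-well plates were exposed to five compound concentrations for 48 h, and endpoints were estimated by linear interpolation. GI50 is the concentration that inhibits growth by half. TGI denotes the concentration required for complete inhibition of growth.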

How the values were obtained:
Test in all cases: DTP human tumour cell line panel, 48 h
[1] = test system: 786-0 renal
[2] = test system: A498 renal
[3] = test system: A549 NSCLC
[4] = test system: ACHN renal
[5] = test system: BT-549 breast
[6] = test system: CAKI-1 renal
[7] = test system: CCRF-CEM leukemia
[8] = test system: COLO 205 colon
[9] = test system: DU-145 prostate
[10] = test system: EKVX NSCLC
[11] = test system: HCC-2998 colon
[12] = test system: HCT-116 colon
[13] = test system: HCT-15 colon
[14] = test system: HL-60(TB) leukemia
[15] = test system: HOP-62 NSCLC
[16] = test system: HOP-92 NSCLC
[17] = test system: HS 578T breast
[18] = test system: HT29 colon
[19] = test system: IGROV1 ovarian
[20] = test system: K-562 leukemia
[21] = test system: KM12 colon
[22] = test system: LOX IMVI melanoma
[23] = test system: M14 melanoma
[24] = test system: MCF7 breast
[25] = test system: MDA-MB-231 breast
[26] = test system: MDA-MB-435
[27] = test system: MOLT-4 leukemia
[28] = test system: NCI-H226 lung
[29] = test system: NCI-H460 lung
[30] = test system: NCI-H522 lung
[31] = test system: NCI/ADR-RES ovarian
[32] = test system: OVCAR-3 ovarian
[33] = test system: OVCAR-4 ovarian
[34] = test system: OVCAR-5 ovarian
[35] = test system: OVCAR-8 ovarian
[36] = test system: PC-3 prostate
[37] = test system: RPMI-8226 leukemia
[38] = test system: RXF 393 renal
[39] = test system: SF-268 CNS
[40] = test system: SF-295 CNS
[41] = test system: SF-539 CNS
[42] = test system: SK-MEL-2 melanoma
[43] = test system: SK-MEL-28 melanoma
[44] = test system: SK-MEL-5 melanoma
[45] = test system: SK-OV-3 ovarian
[46] = test system: SN12C renal
[47] = test system: SNB-19 CNS
[48] = test system: SNB-75 CNS
[49] = test system: SR leukemia
[50] = test system: SW-620 colon
[51] = test system: T-47D breast
[52] = test system: TK-10 renal
[53] = test system: U251 CNS
[54] = test system: UACC-257 melanoma
[55] = test system: UACC-62 melanoma
[56] = test system: UO-31 renal

`Cc1ccc(S(=O)(=O)NC2=NCCN2C(=S)SN2CCn3c2nsc3=S)cc1` showed a GI50 [1] of 19.1 µM, a TGI [1] of 44.4 µM and a GI50 [2] of 28.6 µM. It also gave a TGI [2] of 68.7 µM, a GI50 [3] of 30.4 µM and a TGI [3] of 90.2 µM. The GI50 [4] was 6.56 µM, the TGI [4] was 19.6 µM and the GI50 [5] was 23.4 µM. It also gave a TGI [5] of 55.8 µM, a GI50 [6] of 3.47 µM and a TGI [6] of 14.6 µM. The GI50 [7] was 14 µM, the TGI [7] was 51.9 µM and the GI50 [8] was 6.62 µM. The TGI [8] was 21.2 µM, the GI50 [9] was 26.4 µM and the TGI [9] was greater than 100 µM. For the same compound, the GI50 [10] was 27.7 µM, the TGI [10] was greater than 100 µM and the GI50 [11] was 21 µM. The TGI [11] was 50.6 µM, the GI50 [12] was 13.7 µM and the TGI [12] was 28.8 µM. For the same compound, the GI50 [13] was 15.1 µM, the TGI [13] was 31.7 µM and the GI50 [14] was 11.2 µM. It also gave a TGI [14] of 55.6 µM, a GI50 [15] of 22.4 µM and a TGI [15] of 57.5 µM. For the same compound, the GI50 [16] was 24.7 µM, the TGI [16] was greater than 100 µM and the GI50 [17] was 31.4 µM. The TGI [17] was greater than 100 µM, the GI50 [18] was 29.9 µM and the TGI [18] was 97.5 µM. The GI50 [19] was 14.1 µM, the TGI [19] was 34.6 µM and the GI50 [20] was 14.8 µM. For the same compound, the TGI [20] was 42.4 µM, the GI50 [21] was 16.6 µM and the TGI [21] was 32.7 µM. For the same compound, the GI50 [22] was 1.92 µM, the TGI [22] was 4.25 µM and the GI50 [23] was 15.2 µM. It also gave a TGI [23] of 32.1 µM, a GI50 [24] of 32.5 µM and a TGI [24] greater than 100 µM. The GI50 [25] was 15.1 µM, the TGI [25] was 38 µM and the GI50 [26] was 17.3 µM. The TGI [26] was 41.8 µM, the GI50 [27] was 20.6 µM and the TGI [27] was greater than 100 µM. For the same compound, the GI50 [28] was 19.9 µM, the TGI [28] was 50.6 µM and the GI50 [29] was 31 µM. For the same compound, the TGI [29] was greater than 100 µM, the GI50 [30] was 5.01 µM and the TGI [30] was 18.8 µM. For the same compound, the GI50 [31] was 31.8 µM, the TGI [31] was greater than 100 µM and the GI50 [32] was 10.5 µM. The TGI [32] was 27.9 µM, the GI50 [33] was 14 µM and the TGI [33] was 28.2 µM. It also gave a GI50 [34] of 20.1 µM, a TGI [34] of 40.8 µM and a GI50 [35] of 24.3 µM. It also gave a TGI [35] of 72.1 µM, a GI50 [36] of 17.2 µM and a TGI [36] of 51.7 µM. It also gave a GI50 [37] of 16.7 µM, a TGI [37] of 73.2 µM and a GI50 [38] of 8.17 µM. The TGI [38] was 20.9 µM, the GI50 [39] was 32.4 µM and the TGI [39] was 87.2 µM. For the same compound, the GI50 [40] was 18.2 µM, the TGI [40] was 50.8 µM and the GI50 [41] was 22 µM. The TGI [41] was 52.7 µM, the GI50 [42] was 28.6 µM and the TGI [42] was 89.2 µM. The GI50 [43] was 17.2 µM, the TGI [43] was 32.7 µM and the GI50 [44] was 21.8 µM. The TGI [44] was 50.3 µM, the GI50 [45] was 0.116 µM and the TGI [45] was 13.6 µM. For the same compound, the GI50 [46] was 19.4 µM, the TGI [46] was 46.9 µM and the GI50 [47] was 28.6 µM. It also gave a TGI [47] of 83.1 µM, a GI50 [48] of 24.7 µM and a TGI [48] of 52.9 µM. It also gave a GI50 [49] of 7.29 µM, a TGI [49] of 36.6 µM and a GI50 [50] of 14.1 µM. It also gave a TGI [50] of 40.7 µM, a GI50 [51] of 11.3 µM and a TGI [51] of 26.2 µM. It also gave a GI50 [52] of 11.1 µM, a TGI [52] of 24.7 µM and a GI50 [53] of 19.1 µM. The TGI [53] was 39 µM, the GI50 [54] was 19 µM and the TGI [54] was 43.4 µM. For the same compound, the GI50 [55] was 15.1 µM, the TGI [55] was 32.3 µM and the GI50 [56] was 2.93 µM. It also gave a TGI [56] of 11 µM.
